Test results taken from patent publication US9139615B2, “High-affinity, dimeric inhibitors of PSD-95 as efficient neuroprotectants against ischemic brain damage and for treatment of pain” (University of Copenhagen, priority 2011, dated 2015).
Entries after “also recorded” stand apart in the source; their conditions may differ. Where no end group is shown, it is not given here.

Experiments:
[1] = Physiological status of pMCAO mice (blood values, body weight, temperature, survival); assay type: in vivo; conditions: pMCAO 48 h experiment, 1 hour after surgery, mean ± SEM
Method: The physiological status of the mice was carefully monitored prior to and during pMCAO surgery in order to exclude the observed effects of treatment with dimeric PSD-95 inhibitors being due to secondary conditions (e.g. disease-related) resulting from the experimental procedure.
9.10 Body weight monitoring: The body weight of each mouse was registered during pre-training, before surgery, and at 24 and 48 hours after surgery and no differences were seen between the treatment groups (FIG. 13).
9.11 Temperature monitoring: The rectal temperature of the mouse was continuously measured using a thermocoupled probe connected to a Model Bat 12 unit (Physitemp). The temperature was measured prior to and 30 min after pMCAO in addition to 30 min and 2.5 hours after i.v. injection, i.e. 1 and 3 hours after pMCAO.
9.12 Blood gas analysis: One samples of venous blood was taken for blood gas analysis of PO2/PCO2 electrolytes, glucose, lactate, and hematocrit, 30 min after compound administration (1 hour after pMCAO). A capillary heparin coated tube was inserted along the inner corner of eye and turned until it penetrated the conjunctiva. A sample of blood (150 μl) was collected and stored on ice until gas analysis using the GEM Premier 300 blood gas instrument (Instrumentation Laboratory) Quality controls (QC ContrlIL9) were purchased from IL Sensor Systems. Also, no differences were detected in blood gas parameters (PO2/PCO2, pH, electrolytes, glu/lac), which were similar between the groups and within normal range, when compared to unmanipulated control mice (Table 4).

[2] = system: pMCAO model of ischemic stroke; test: Rotarod performance test after pMCAO; assay type: in vivo, mice; conditions: 48 hours after pMCAO; for total time spent on the rod: 3 nmol/g i.v., four trials
Method: The rotarod (LE 8200, Panlab) is well suited to evaluate motor activity in rodents, experimental compound effects on central nervous system damage, or disease effects on motor coordination, assessed by the time during which the animal remains walking in a rotating drum. The rotation of the rotarod is motor drived and accelerates from 0 to 40 rounds per min (rpm) over a time period of 5 min, at which time all mice have fallen off the rod. All mice were tested in 4 repeating trials with a 20 min interval (resting time). Prior to surgery mice were pre-trained to stay on the rod for 30 seconds, at 4 rpm.

[3] = system: CFA-induced mechanical allodynia/hyperalgesia; test: Complete Freund's adjuvant (CFA) inflammatory pain, von Frey test; assay type: in vivo, mice; conditions: administered concurrently with CFA, 1 hour and 24 hours after treatment
[4] = Human blood plasma stability assay; assay type: in vitro ADME; conditions: human, plasma; 0.25 mM, 37° C., in vitro; read-out: half-life (T1/2) in human blood plasma
Method: Ligands (dimeric PSD-95 inhibitors) for the PDZ domain of PSD-95 were dissolved in human blood plasma (270 μL; 3H Biomedical, Sweden, cat no 1300-1-P50) to a concentration of 0.25 mM (30 μL, of 2.5 mM) and incubated at 37° C. Aliquots (30 μL) were removed at various time intervals (e.g. 0, 5, 10, 20, 40, 80, 160, 320, 960, 1280, 2550, 4560 and 7240 min) and quenched with 60 μL, trichloroacetic acid (aq., 5%). The aliquots were vortexed, and incubated 15 min, at 4° C. prior to centrifugation at 18,000 g for 2 min. The supernatants were analyzed by analytical RP-HPLC (UV218) to quantify compound relative to time zero, and also evaluated qualitatively by ESI-LC/MS in order to identify the compound (m/z) in the sample. Procaine (positive control) and procainamide (negative control) were investigated at 50 μM to validate the procedure. Ligand recoveries following the precipitation procedure were between 85-95%.

[5] = system: pMCAO model of ischemic stroke; test: Grip strength after pMCAO; assay type: in vivo, mice; conditions: 48 hours after pMCAO, 3 nmol/g i.v.
Method: The grip strength meter (BIO-GT-3, BIOSEB) allows the study of neuromuscular functions in mice by determining the maximum force that is required to make the mouse release its grip. The grip strength in individual paws was used to measure the severity of the pMCAO-induced asymmetry. The mouse is allowed to grasp a metal grid and then pulled backwards in the horizontal plane. The force applied to the grid is recorded as the peak tension. The strength of individual front paws and the total grip strength (both paws simultaneously) were measured before (baseline) and after pMCAO. Each mouse is tested in 5 sequential trials and the highest grip strength is recorded as the best score.

[6] = Blood-brain barrier permeability of fluorescent analogues; assay type: in vivo, mice; conditions: mice, conclusion for unlabeled compounds
Method: VI.ii. Blood-brain Barrier Permeability. […] After injection of the compounds, the mice are perfused with paraformaldehyde and the brains are carefully removed, post-fixed in paraformaldehyde, processed into coronal sections, and quantified for fluorescence (Example 8).
The fluorescent ligands were injected intravenously (3 nmol/g) and the location of the ligands was detected by fluorescence microscopy of coronal brain slices (n=8) mice, was evaluated 2 hours after injection. Two sections of the brain, prior to and two after the anterior commissure (n=5), were selected for BBB permeability analysis. The anterior commissure (Bregma: −0.3) was used as a fix point in the brain in order to analyse anatomically identical brain sections. The intensity of the 5-FAM fluorophore was measured semi-quantitatively using a fluorescence microscopy system (Olympus System Microscope model BX-51, Denmark) with a 10× objective (Olympus 10×/0.15 UPlanApo) connected to a high-resolution microscope digital camera (Olympus model DP70), which transferred images to an image-capturing software (Image Pro Plus software). All images were taken using the same microscope settings and with constant camera exposure time. Intensities were quantified using the ImageJ software.
5-FAM-labeled derivative of Tat-NR2B9c is designated MS23. After injection of the compounds, the mice are perfused with paraformaldehyde and the brains are carefully removed, post-fixed in paraformaldehyde, processed into coronal sections, and quantified for fluorescence.
C57BL/6 mice with 6 hour post-surgical survival time were euthanized by cervical dislocation. C57BL/6 mice with 48 hour post-surgical survival were anesthetized with an overdosed of pentobarbital (the pharmacy of the Faculty of Life Sciences, University of Copenhagen, Denmark) in order to collect blood and tissue samples. All brains were carefully removed, frozen in gaseous CO2 and cut into 6 series of 30 μm coronal cryostat sections and stored at −80° C. until further use. C57BL/6J mice used to investigate the blood-brain barrier (BBB) permeability of AB143, AB145, AB148, and MS23 were deeply anesthetized and perfused through the left ventricle, using 10 ml chilled Soerensens phosphate buffer (SB) ([…], 125 mM Na2HPO4, pH 7.4) followed by 20 mL SB containing 4% paraformaldehyde (PFA). The brains were carefully removed and post-fixed in 4% PFA for 1 hour followed by immersion in SB containing 20% sucrose over night. The brains were frozen on gaseous CO2 and processed into 16 μm coronal cryostat sections.

[7] = Spinal cord detection of fluorescent PSD-95 inhibitors; assay type: in vivo, mice; conditions: conclusion for unlabeled compounds
Method: To investigate if AB143 and AB145 are able to enter spinal cord tissue, they were administered to the mice by intraperitoneal injection (30 mg/kg). The drug-treated mice were decapitated 30 min after injection, and the spinal cord was carefully dissected out, to which 5% trichloroacetic acid (TCA) (300 μL per 0.1 g tissue) was added and the tissue homogenized with an ultrasonic homogenizer (on ice). The homogenated tissue was vortexed and centrifuged for 10 min (20000 g at 4° C.). The supernatant was transferred to a test tube and evaporated, and the residue was reconstituted in water and its fluoresence intensity was determined by using a fluorescence plate reader (excitation/emission:470/525 nm). For quantification of the compounds, a standard curve was prepared by spiking a known amount of AB143 and AB145 into spinal cord tissue from control mice prior to homogenization, followed by work-up and analysis similar to the drug-treated mice.

[8] = system: pMCAO model of cerebral focal ischemia; test: pMCAO model of cerebral focal ischemia, infarct volume; assay type: in vivo, mice; conditions: 3 nmol/g i.v. 30 min after pMCAO

Molecule: CC[C@H](C)[C@H](NC(=O)CCOCCOCCN(CCOCCOCCC(=O)N[C@H](C(=O)N[C@@H](CCC(=O)O)C(=O)N[C@H](C(=O)N[C@@H](CC(=O)O)C(=O)N[C@H](C(=O)O)C(C)C)[C@@H](C)O)[C@@H](C)CC)C(=O)[C@H](CCCNC(=N)N)NC(=O)[C@H](CCCNC(=N)N)NC(=O)[C@H](CCCNC(=N)N)NC(=O)[C@H](CCC(N)=O)NC(=O)[C@H](CCCNC(=N)N)NC(=O)[C@H](CCCNC(=N)N)NC(=O)[C@H](CCCCN)NC(=O)[C@H](CCCCN)NC(=O)[C@H](CCCNC(=N)N)NC(=O)CNC(=O)[C@@H](N)Cc1ccc(O)cc1)C(=O)N[C@@H](CCC(=O)O)C(=O)N[C@H](C(=O)N[C@@H](CC(=O)O)C(=O)N[C@H](C(=O)O)C(C)C)[C@@H](C)O [AB144, Tat-NPEG4(IETDV)2]
- blood pH ([1]; 3 nmol/g i.v.): 7.16 ± 0.01
- Hct [1]: 43.5 ± 0.9%
- [Ca2+] [1]: 1.30 ± 0.02 mmol/L
- [K+] [1]: 5.2 ± 0.20 mmol/L
- [Lactate] [1]: 0.93 ± 0.07 mmol/L
- [Na+] [1]: 148 ± 2.0 mmol/L
- pCO2 [1]: 95.7 ± 2.3 mmHg
- pO2 [1]: 50.2 ± 2.2 mmHg
- total time spent on the rod [2]: 83.5 ± 4.1 s
- short term learning skill improvement on rotarod compared to saline ([2]; trials T1-T4): more pronounced short term learning skill improvement
- CFA-induced mechanical hyperalgesia [3]: prevented the development of CFA-induced mechanical hyperalgesia
- half-life at 0.25 mM [4]: 81.7 ± 1.67 h
- grip strength asymmetry between right and left front paw [5]: no asymmetry and not
- total grip strength (both paws) compared to baseline [5]: no significant change in total grip strength; also recorded: No difference compared to baseline
- ability to enter the brain (concluded from fluorescent surrogates) [6]: ability to cross the blood-brain barrier; also recorded: able to enter the brain
- ability to enter spinal cord tissue (concluded from fluorescent surrogates) [7]: able to enter CNS spinal cord tissue at relevant concentrations

Molecule: YGRKKRRQRRRKLSSIESDV [Tat-NR2B9c, reference compound]
- reduction of ischemic tissue damage (infarct volume) compared to saline ([8]; 6 hour post-surgical survival): did not provide a statistically significant reduction; also recorded: not achieved
- reduction in infarct size compared to saline ([8]; 48 hours after pMCAO): no statistically significant infarct reduction
- total time spent on the rod [2]: 65.7 ± 3.6 s
- grip strength asymmetry between right and left front paw [5]: observed
- total grip strength (both paws) compared to baseline [5]: lost a significant amount of grip strength; also recorded: significant reduced grip strength
